Source: patent US9707265B2, “Treatment of muscular dystrophy” (The University of Sheffield, priority 2012, dated 2017)
“Also recorded” adds a separate entry of the source. Where a SMILES comes first, the peptide text is derived from it. The star is where a group is joined. Cbz = O=C(OCc1ccccc1)*

Experiments:
sapje zebrafish = assay: Rescue of the dystrophic phenotype (muscle integrity, actin:GFP) in sapje zebrafish embryos; assay type: in vivo; conditions: sapje embryos treated from 24 hpf; actin:GFP as marker of muscle integrity
Protocol: Zebrafish embryos were collected from group matings of heterozygous sapje ta222a (a dystrophin mutant) and homozygous for a transgene that labels all the fast muscle with GFP (actin:GFP;). At 24 hours post fertilization (hpf) embryos were dechorionated enzymatically, washed and arrayed into multiwell plates with 40 embryos per treatment (5 embryos per well). Sapje embryos are produced at normal Mendelian frequencies, so from 40 embryos we expect 10 homozygote for sapje. Compounds to be tested were added to a final concentration based on available clinical or mouse studies for EC50. All plates included negative controls. Live embryos were assayed for muscle degeneration using actin:GFP as a marker of muscle integrity in sapje fish. Fluorescent scans for GFP along the body axis of wildtype siblings or mutant fish reveal a dramatic profile of fluorescence intensity which clearly distinguished the normal muscle from damaged muscle.

β-dystroglycan [1] = assay: Western blot analysis of β-dystroglycan and phosphorylated β-dystroglycan in sapje fish; assay type: in vivo, zebrafish; conditions: 1 μM MG132, western blot
Protocol: FIG. 16. Illustrates western blot analysis of β-dystroglycan (β-DG) and phosphorylated β-dystroglycan (p β-DG) in sapje fish (blue bars) and in sapje fish treated with 1 μM of the proteasomal inhibitor MG132 (purple bars).

[2] = biological target: T1, ubiquitin activating enzyme E1 (Homo sapiens, UniProt P22314); conditions: reference 51; cited from earlier work
T1 sequence (P22314 1-1058): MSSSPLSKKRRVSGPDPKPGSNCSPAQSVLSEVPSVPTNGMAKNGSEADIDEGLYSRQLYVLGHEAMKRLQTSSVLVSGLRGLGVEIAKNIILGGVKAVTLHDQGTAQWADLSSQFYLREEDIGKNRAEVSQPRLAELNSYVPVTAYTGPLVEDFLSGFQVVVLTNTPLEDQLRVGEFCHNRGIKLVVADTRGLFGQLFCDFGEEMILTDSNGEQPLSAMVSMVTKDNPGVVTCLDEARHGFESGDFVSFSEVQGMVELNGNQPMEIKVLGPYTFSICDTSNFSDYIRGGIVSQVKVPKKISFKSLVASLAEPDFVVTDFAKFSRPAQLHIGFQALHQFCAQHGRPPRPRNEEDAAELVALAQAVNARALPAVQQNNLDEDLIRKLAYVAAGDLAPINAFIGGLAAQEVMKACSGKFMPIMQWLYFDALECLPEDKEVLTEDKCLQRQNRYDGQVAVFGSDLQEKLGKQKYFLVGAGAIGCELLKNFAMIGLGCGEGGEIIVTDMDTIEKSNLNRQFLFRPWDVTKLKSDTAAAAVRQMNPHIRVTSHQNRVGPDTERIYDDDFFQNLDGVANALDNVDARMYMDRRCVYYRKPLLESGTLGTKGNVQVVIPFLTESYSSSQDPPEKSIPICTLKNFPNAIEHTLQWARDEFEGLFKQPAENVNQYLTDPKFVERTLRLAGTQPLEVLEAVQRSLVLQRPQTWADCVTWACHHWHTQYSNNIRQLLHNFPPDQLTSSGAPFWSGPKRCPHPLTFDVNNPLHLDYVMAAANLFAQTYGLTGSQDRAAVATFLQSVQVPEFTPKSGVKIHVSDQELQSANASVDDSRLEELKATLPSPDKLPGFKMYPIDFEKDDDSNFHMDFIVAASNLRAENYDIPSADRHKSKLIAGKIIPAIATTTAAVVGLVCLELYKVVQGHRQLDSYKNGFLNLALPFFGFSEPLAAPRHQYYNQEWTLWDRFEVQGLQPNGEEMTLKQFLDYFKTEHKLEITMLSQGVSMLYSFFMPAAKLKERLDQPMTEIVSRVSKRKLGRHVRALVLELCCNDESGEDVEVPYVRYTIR

mdx mouse = conditions: Gazzerro et al. 2010; cited from earlier work
β-dystroglycan [3] = assay: β-dystroglycan ubiquitination after protein tyrosine phosphatase inhibition in myoblast cells expressing HA-tagged ubiquitin; assay type: cell-based; conditions: immunoprecipitation and western blot
Source text: Tyrosine phosphatases were inhibited in myoblast cells in vitro using peroxyvanadate and samples from cells expressing HA-tagged ubiquitin were taken for immunoprecipitation and western blot analysis. Immunoprecipitation with either the HA tag, or β-dystroglycan at various time points was followed by Western blotting for the HA epitope, β-dystroglycan or tubulin as a loading control.

For `CC(C)C[C@H](NC(=O)[C@H](CCc1ccccc1)NC(=O)CN1CCOCC1)C(=O)N[C@@H](Cc1ccccc1)C(=O)N[C@@H](CC(C)C)C(=O)[C@@]1(C)CO1` [Carfilzomib], the “effect on the dystrophic phenotype of sapje zebrafish” value (from here on “effect on the dystrophic phenotype”) (sapje zebrafish) was “dose dependent rescue”.
In the case of `CC(C)C[C@@H](C=O)NC(=O)[C@H](CC(C)C)NC(=O)[C@H](CC(C)C)NC(=O)OCc1ccccc1` [MG132] (Cbz-Leu-Leu-Leu-aldehyde), the “effect on the dystrophic phenotype” value (sapje zebrafish) is reported as “dose dependent rescue”, the “amount of non-phosphorylated b-dystroglycan in treated sapje fish” value (β-dystroglycan [1]) is reported as “significant increase” and the “amount of phosphorylated b-dystroglycan in treated sapje fish” value (β-dystroglycan [1]) is reported as “significant increase”.
In the case of `CCOC(=O)c1ccc(N2NC(=O)/C(=C/c3ccc([N+](=O)[O-])o3)C2=O)cc1` [Pyr-41], the “effect on the dystrophic phenotype” value (sapje zebrafish) is listed as “small but positive benefit; also recorded: dose dependent rescue” and the “inhibition of ubiquitin activating enzyme E1” value [2] is listed as “inhibit the ubiquitin activating enzyme E1”.
For `CC(C)C[C@H](NC(=O)[C@H](Cc1ccccc1)NC(=O)c1cnccn1)B(O)O` [bortezomib], the “effect on the dystrophic phenotype” value (sapje zebrafish) is given as “Qualitatively similar results; also recorded: dose dependent rescue” and the “restoration of DGC components” value (mdx mouse) is given as “restore DGC components”.
In the case of peroxyvanadate, the “ubiquitin-β-dystroglycan bands over time course of treatment” value (β-dystroglycan [3]) is reported as “increase in the proportion and number of ubiquitin-β-dystroglycan bands”.
